Data: US9169217B2, “Arylalkyl esters of 4-amino-6-(substituted phenyl)-picolinates and 6-amino-2-(substituted phenyl)-pyrimidinecarboxylates and their use as selective herbicides for crops” (Dow AgroSciences LLC, priority 2011, dated 2015)
Like-named read-outs stand apart in the source and are kept apart here.

What was measured:
Experiment in all cases: Postemergence foliar-applied herbicidal activity in direct seeded rice (Example 16)
Format in all cases: in vivo
[1] = test system: Cyperus difformis L. (small-flower flatsedge); details: post-emergence, 504 h, read-out: Visual Injury (%) CYPDI
Procedure, shortened: (§1)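 Greenhouse plants at 2nd–3rd true leaf stage (10–17 d, ~29/26 °C, 14-h photoperiod) sprayed postemergence with ester forms in acetone–DMSO plus 1.25% crop oil concentrate at 187 L/ha. Visual injury scored 0–100% versus untreated plants after 3 weeks; GR50/GR80 derived by probit analysis.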

[2] = test system: Echinochloa crus-galli (L.) P.BEAUV. (barnyardgrass); details: ECHCG, probit analysis; for GR50: 50% growth reduction; for GR80: 80% growth reduction; for GR90: 90% growth reduction
Procedure, shortened: as §1

[3] = test system: Polygonum pensylvanicum L. (Pennsylvania smartweed); details: POLPY, probit analysis; for GR50: 50% growth reduction; for GR80: 80% growth reduction; for GR90: 90% growth reduction
Procedure, shortened: as §1

[4] = test system: Cyperus iria L. (rice flatsedge); details: rice cropping systems, 8.75 g ae/ha, 21 DAA, may represent multiple trials
Procedure, shortened: as §1

Compound	pest or weed control at 8.75 g/ha [1] [%]	GR50 [2] [g ae/ha]	GR80 [2] [g ae/ha]	GR90 [2] [g ae/ha]	GR50 [3] [g ae/ha]	GR80 [3] [g ae/ha]	GR90 [3] [g ae/ha]	Visual Injury (%) CYPIR [4] [%]	pest or weed control at 8.75 g/ha ([1]; rice cropping systems, foliar-applied, 8.75 g ae/ha, 21 DAA, may represent multiple trials) [%]
COc1c(Cl)ccc(-c2nc(C(=O)OCc3ccccc3)c(Cl)c(N)c2F)c1F [Compound 1, benzyl 4-amino-3-chloro-6-(4-chloro-2-fluoro-3-methoxyphenyl)-5-fluoropicolinate]	100	<4.38	<4.38	6.1	<8.75	19.7	46.7	–	–
Nc1c(F)c(-c2ccc(C3CC3)cc2)nc(C(=O)OCc2ccccc2)c1Cl [Compound 42, benzyl 4-amino-3-chloro-6-(4-cyclopropylphenyl)-5-fluoropicolinate]	–	–	–	–	–	–	–	100	–
COC(=O)c1nc(-c2ccc(C3CC3)cc2)c(F)c(N)c1Cl [Compound B, methyl 4-amino-3-chloro-6-(4-cyclopropylphenyl)-5-fluoropicolinate]	–	–	–	–	–	–	–	60	–
COC(=O)c1nc(-c2ccc(Cl)c(OC)c2F)c(F)c(N)c1Cl [E, methyl 4-amino-3-chloro-6-(4-chloro-2-fluoro-3-methoxyphenyl)-5-fluoropicolinate, reference compound]	–	3.7	17.1	38.1	30.7	>70	>70	–	89
